# Results published in patent US20080166805A1, “Culturing human cells and tissues in an N-glycolylneuraminic acid-free environment” (The Regents of the University of California, priority 2005, published 2008).
# System: Caco-2 cells
# Experiment: Endocytosis inhibition experiments (Neu5Gc uptake in Caco-2 cells)
# Format: cell-based, human
# Details: 2 h pre-treatment with drug, then 3 mM Neu5Gc
# Experimental: The sonicate was centrifuged at 75×g for 15 min., and the pellet obtained consisted primarily of nuclei and unbroken cells. […] A portion (20%) of the “total homogenate” fraction was taken for protein quantification and Sia analysis by DMB derivatization and HPLC analysis (as discussed below.) The remainder was centrifuged at 100,000×g for 1 h. The resulting pellet, called the “membrane” fraction, was then resuspended by sonication (15 sec.) in 200 μl of sodium acetate buffer, pH 5.5. The 100,000×g supernatant, called the “soluble” fraction was adjusted to 90% ethanol using absolute ice-cold ethanol, and placed overnight at −20° C. The flocculant precipitate, which represents the “soluble protein” fraction, was washed 3 times with 90% ice-cold ethanol and then resuspended in 200 μl of water. The supernatant fluid representing the cytosolic low molecular weight (LMW) fraction was dried and brought up in 100 μL with water prior to Sia analysis. All the Sias in these fractions were released with mild acid hydrolysis if necessary and then analyzed by HPLC after DMB derivatization. Protein quantification was performed on the total homogenate, membrane and soluble protein fractions by using the BCA protein assay kit from Pierce (Rockford, Ill.) In some experiments, the resulting data obtained for the Sia bound to the membrane fraction and to the soluble proteins were pooled and presented here as a High Molecular Weight (HMW) fraction. Sialic Acid Release, DMB Derivatization and HPLC Analysis—The bound Sias from the total homogenate, membrane and soluble protein fractions were released using 2M acetic acid hydrolysis, 3 h. at 80° C. The released Sias, or free Sias, contained in the soluble LMW fraction were passed through a Microcon® YM-10 filter (Millipore, Bedford, Mass.) prior to DMB derivatization, which was done according to Hara et al., 1989. […] The eluant was monitored by fluorescence. Quantification of Sias—For all HPLC chromatograms, the quantification of Sias was done by comparison with known quantities of DMB derivatized Neu5Gc and Neu5Ac used as standards and then reported in terms of pmoles of Sia. For total homogenate, membrane and cytosolic protein fractions, this number was expressed per mg of protein. Due to minor sample-to-sample variations in amounts and recoveries, the data in the Figures is presented as percent of Neu5Gc over total Sias, rather than as absolute amounts. Endocytosis Inhibition Experiments—Caco-2 or normal fibroblast cells were split and cultured in alpha-MEM media supplemented respectively with 20% or 15% human serum for 4 days before starting the endocytosis drug inhibition experiments in order to deplete any Neu5Gc derived from FCS. Cells were then pre-treated for 2 h. with the specific inhibitors under the same culture conditions. Fresh media containing the same amount of inhibitor and 3 mM of Neu5Gc was then added to the cells, which were incubated for 16 h or 3 days and finally harvested and fractionated as described above.
Compound,Neu5Gc incorporation into membrane-bound glycoconjugates in the presence of inhibitor (percent of total Sia) [%],incorporation of Neu5Gc in the TH fraction in the presence of inhibitor (percent of total Sia) [%]
N=C(N)NC(=O)c1nc(Cl)c(N)nc1N [amiloride],10,
CN(C)CCCN1c2ccccc2Sc2ccc(Cl)cc21 [chlorpromazine],50,
O=c1c(-c2ccc(O)cc2)coc2cc(O)cc(O)c12 [genistein],34,51
C[C@@H]1[C@H](O)[C@@H](C)/C=C/C=C/CC/C=C/C=C/C=C/C=C/C(O[C@H]2O[C@H](C)[C@@H](O)[C@H](N)[C@@H]2O)CC2O[C@](O)(CC(O)C(O)CCC(O)CC(O)CC(O)CC(=O)O[C@H]1C)CC(O)C2C(=O)O (stereo partly drawn) [nystatin],44,~65
